Measurements reported in ChEMBL document CHEMBL1201861, “Genomics of Drug Sensitity in Cancer screening data, Wellcome Trust Sanger Institute”.

Key:
Assay in all cases: cells
Assay type in all cases: functional, cell-based, Homo sapiens
NCI-H1648 = conditions: Homo sapiens, NCI-H1648;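 further: cell viability assay measuring inhibition of NCI-H1648 cell growth, from the Sanger screening data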
Description: SANGER: Inhibition of human NCI-H1648 cell growth in a cell viability assay.

RH-1 = conditions: Homo sapiens, RH-1;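 further: growth inhibition of human RH-1 cells, read out with a cell viability assay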
Description: SANGER: Inhibition of human RH-1 cell growth in a cell viability assay.

NCI-H1581 = conditions: Homo sapiens, NCI-H1581;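 further: cell growth inhibition read out by a viability assay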
Description: SANGER: Inhibition of human NCI-H1581 cell growth in a cell viability assay.

HCC1187 = conditions: Homo sapiens, HCC1187;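 further: growth inhibition of HCC1187 cells, read out with a cell viability assay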
Description: SANGER: Inhibition of human HCC1187 cell growth in a cell viability assay.

ES4 = conditions: Homo sapiens, ES4;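 further: growth inhibition of human ES4 cells, read out by a cell viability assay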
Description: SANGER: Inhibition of human ES4 cell growth in a cell viability assay.

NOMO-1 = conditions: Homo sapiens, NOMO-1;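 further: growth inhibition of human NOMO-1 cells measured by a cell viability assay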
Description: SANGER: Inhibition of human NOMO-1 cell growth in a cell viability assay.

LB373-MEL-D = conditions: Homo sapiens, LB373-MEL-D;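 further: growth inhibition of the cell line, read out in a cell viability assay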
Description: SANGER: Inhibition of human LB373-MEL-D cell growth in a cell viability assay.

DB = conditions: Homo sapiens, DB
Description: SANGER: Inhibition of human DB cell growth in a cell viability assay.

BB30-HNC = conditions: Homo sapiens, BB30-HNC;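 further: growth inhibition of the cultured cell line, read out by a cell viability assay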
Description: SANGER: Inhibition of human BB30-HNC cell growth in a cell viability assay.

EKVX = conditions: Homo sapiens, EKVX;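 further: growth inhibition of human EKVX cells, read out with a cell viability assay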
Description: SANGER: Inhibition of human EKVX cell growth in a cell viability assay.

MOLT-16 = conditions: Homo sapiens, MOLT-16;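 further: growth inhibition of human MOLT-16 cells, read out with a cell viability assay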
Description: SANGER: Inhibition of human MOLT-16 cell growth in a cell viability assay.

SNB-75 = conditions: Homo sapiens, SNB-75;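 further: cell viability assay measuring growth inhibition of human SNB-75 cells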
Description: SANGER: Inhibition of human SNB75 cell growth in a cell viability assay.

J-RT3-T3-5 = conditions: Homo sapiens, J-RT3-T3-5;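 further: cell viability assay measuring growth inhibition of human J-RT3-T3-5 cells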
Description: SANGER: Inhibition of human J-RT3-T3-5 cell growth in a cell viability assay.

NB5 = conditions: Homo sapiens, NB5;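 further: growth inhibition of NB5 cells, read out as cell viability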
Description: SANGER: Inhibition of human NB5 cell growth in a cell viability assay.

KE-37 = conditions: Homo sapiens, KE-37;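 further: growth inhibition of KE-37 cells, read out with a cell viability assay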
Description: SANGER: Inhibition of human KE-37 cell growth in a cell viability assay.

A101D = conditions: Homo sapiens, A101D;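 further: growth inhibition of the cell line, measured with a viability assay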
Description: SANGER: Inhibition of human A101D cell growth in a cell viability assay.

JVM-3 = conditions: Homo sapiens, JVM-3;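 further: growth inhibition of human JVM-3 cells, read out with a cell viability assay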
Description: SANGER: Inhibition of human JVM-3 cell growth in a cell viability assay.

MFH-ino = conditions: Homo sapiens, MFH-ino;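 further: growth inhibition of human MFH-ino cells, read out by a cell viability assay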
Description: SANGER: Inhibition of human MFH-ino cell growth in a cell viability assay.

KGN = conditions: Homo sapiens, KGN;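 further: growth inhibition of KGN cells, read out with a cell viability assay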
Description: SANGER: Inhibition of human KGN cell growth in a cell viability assay.

MMAC-SF = conditions: Homo sapiens, MMAC-SF;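 further: growth inhibition of human MMAC-SF cells, read out with a cell viability assay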
Description: SANGER: Inhibition of human MMAC-SF cell growth in a cell viability assay.

RKO = conditions: Homo sapiens, RKO;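 further: growth inhibition of human RKO cells, read out with a cell viability assay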
Description: SANGER: Inhibition of human RKO cell growth in a cell viability assay.

KARPAS-45 = conditions: Homo sapiens, KARPAS-45;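 further: inhibition of cell line growth, read out through a viability assay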
Description: SANGER: Inhibition of human KARPAS-45 cell growth in a cell viability assay.

SW684 = conditions: Homo sapiens, SW684;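 further: growth inhibition of human SW684 cells, measured by a cell viability assay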
Description: SANGER: Inhibition of human SW684 cell growth in a cell viability assay.

C2BBe1 = conditions: Homo sapiens, C2BBe1;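 further: growth inhibition of C2BBe1 cells, read out through a viability assay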
Description: SANGER: Inhibition of human C2BBe1 cell growth in a cell viability assay.

D-392MG = conditions: Homo sapiens, D-392MG
HT-144 = conditions: Homo sapiens, HT-144
Description: SANGER: Inhibition of human HT-144 cell growth in a cell viability assay.

A704 = conditions: Homo sapiens, A704;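 further: growth inhibition of human A704 cells, read out with a cell viability assay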
Description: SANGER: Inhibition of human A704 cell growth in a cell viability assay.

COLO-320-HSR = conditions: Homo sapiens, COLO-320-HSR;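 further: growth inhibition of COLO-320-HSR cells, determined with a cell viability assay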
Description: SANGER: Inhibition of human COLO-320-HSR cell growth in a cell viability assay.

LS-1034 = conditions: Homo sapiens, LS-1034
Description: SANGER: Inhibition of human LS-1034 cell growth in a cell viability assay.

KINGS-1 = conditions: Homo sapiens, KINGS-1;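 further: cell viability assay measuring suppression of KINGS-1 cell growth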
Description: SANGER: Inhibition of human KINGS-1 cell growth in a cell viability assay.

EW-24 = conditions: Homo sapiens, EW-24;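 further: human EW-24 cancer cell line, growth inhibition read out via a cell viability assay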
Description: SANGER: Inhibition of human EW-24 cell growth in a cell viability assay.

NCI-H1355 = conditions: Homo sapiens, NCI-H1355;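 further: growth inhibition of human NCI-H1355 cells, read out by a cell viability assay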
Description: SANGER: Inhibition of human NCI-H1355 cell growth in a cell viability assay.

IST-SL1 = conditions: Homo sapiens, IST-SL1;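 further: growth inhibition of human IST-SL1 cells, read out with a cell viability assay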
Description: SANGER: Inhibition of human IST-SL1 cell growth in a cell viability assay.

DEL = conditions: Homo sapiens, DEL;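 further: growth inhibition of the human DEL cell line, read out with a cell viability assay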
Description: SANGER: Inhibition of human DEL cell growth in a cell viability assay.

SNU1 = conditions: Homo sapiens, SNU1;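 further: growth inhibition of human NCI-SNU-1 cells, measured with a cell viability assay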
Description: SANGER: Inhibition of human NCI-SNU-1 cell growth in a cell viability assay.

KALS-1 = conditions: Homo sapiens, KALS-1;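 further: growth inhibition of KALS-1 cells, determined with a cell viability assay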
Description: SANGER: Inhibition of human KALS-1 cell growth in a cell viability assay.

Ramos-2G6-4C10 = conditions: Homo sapiens, Ramos-2G6-4C10;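 further: growth inhibition of the cell line, measured by a cell viability read-out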
Description: SANGER: Inhibition of human Ramos-2G6-4C10 cell growth in a cell viability assay.

COLO-829 = conditions: Homo sapiens, COLO-829
Description: SANGER: Inhibition of human COLO-829 cell growth in a cell viability assay.

DOHH-2 = conditions: Homo sapiens, DOHH-2;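 further: growth inhibition of human DOHH-2 cells, read out with a cell viability assay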
Description: SANGER: Inhibition of human DOHH-2 cell growth in a cell viability assay.

MN-60 = conditions: Homo sapiens, MN-60;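 further: growth inhibition of the MN-60 cell line, determined with a cell viability assay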
Description: SANGER: Inhibition of human MN-60 cell growth in a cell viability assay.

GR-ST = conditions: Homo sapiens, GR-ST
Description: SANGER: Inhibition of human GR-ST cell growth in a cell viability assay.

EC-GI-10 = conditions: Homo sapiens, EC-GI-10
Description: SANGER: Inhibition of human EC-GI-10 cell growth in a cell viability assay.

EW-18 = conditions: Homo sapiens, EW-18;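 further: growth inhibition of EW-18 cells, read out by a cell viability assay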
Description: SANGER: Inhibition of human EW-18 cell growth in a cell viability assay.

CCRF-CEM = conditions: Homo sapiens, CCRF-CEM;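 further: inhibition of CCRF-CEM cell growth, measured by a cell viability assay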
Description: SANGER: Inhibition of human CCRF-CEM cell growth in a cell viability assay.

HCC2218 = conditions: Homo sapiens, HCC2218;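 further: cell viability assay read-out, with IC50 given as the concentration that inhibits growth of the cell line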
Description: SANGER: Inhibition of human HCC2218 cell growth in a cell viability assay.

RXF 393 = conditions: Homo sapiens, RXF 393;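 further: growth inhibition of human RXF 393 cells, read out with a cell viability assay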
Description: SANGER: Inhibition of human RXF393 cell growth in a cell viability assay.

no-10 = conditions: Homo sapiens;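 further: growth inhibition of no-10 cells, read out with a cell viability assay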
Description: SANGER: Inhibition of human no-10 cell growth in a cell viability assay.

SF-268 = conditions: Homo sapiens, SF-268;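 further: growth inhibition of SF-268 cells determined with a cell viability assay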
Description: SANGER: Inhibition of human SF268 cell growth in a cell viability assay.

Cc1cn(-c2cc(NC(=O)c3ccc(C)c(Nc4nccc(-c5cccnc5)n4)c3)cc(C(F)(F)F)c2)cn1 [NILOTINIB]
IC50 (NCI-H1648): > 2 µM
IC50 (RH-1): > 2 µM
IC50 (NCI-H1581): > 2 µM
IC50 (HCC1187): > 2 µM
IC50 (ES4): > 2 µM
IC50 (NOMO-1): > 2 µM
IC50 (LB373-MEL-D): > 2 µM
IC50 (DB): > 2 µM
IC50 (BB30-HNC): > 2 µM
IC50 (EKVX): > 2 µM
IC50 (MOLT-16): > 2 µM
IC50 (SNB-75): > 2 µM
IC50 (J-RT3-T3-5): > 2 µM
IC50 (NB5): > 2 µM
IC50 (KE-37): > 2 µM
IC50 (A101D): > 2 µM
IC50 (JVM-3): > 2 µM
IC50 (MFH-ino): > 2 µM
IC50 (KGN): > 2 µM
IC50 (MMAC-SF): > 2 µM
IC50 (RKO): > 2 µM
IC50 (KARPAS-45): > 2 µM
IC50 (SW684): > 2 µM
IC50 (C2BBe1): > 2 µM
IC50 (D-392MG): > 2 µM
IC50 (HT-144): > 2 µM
IC50 (A704): > 2 µM
IC50 (COLO-320-HSR): > 2 µM
IC50 (LS-1034): > 2 µM
IC50 (KINGS-1): > 2 µM
IC50 (EW-24): > 2 µM
IC50 (NCI-H1355): > 2 µM
IC50 (IST-SL1): > 2 µM
IC50 (DEL): > 2 µM
IC50 (SNU1): > 2 µM
IC50 (KALS-1): > 2 µM
IC50 (Ramos-2G6-4C10): > 2 µM
IC50 (COLO-829): > 2 µM
IC50 (DOHH-2): > 2 µM
IC50 (MN-60): > 2 µM
IC50 (GR-ST): > 2 µM
IC50 (EC-GI-10): > 2 µM
IC50 (EW-18): > 2 µM
IC50 (CCRF-CEM): > 2 µM
IC50 (HCC2218): > 2 µM
IC50 (RXF 393): > 2 µM
IC50 (no-10): > 2 µM
IC50 (SF-268): > 2 µM

CN(C)C(=N)NC(=N)N [METFORMIN]
IC50 (NCI-H1648): > 20000 µM
IC50 (NCI-H1581): 14900 µM
IC50 (HCC1187): 14200 µM
IC50 (ES4): > 20000 µM
IC50 (NOMO-1): > 20000 µM
IC50 (DB): > 20000 µM
IC50 (BB30-HNC): 10800 µM
IC50 (EKVX): > 20000 µM
IC50 (MOLT-16): > 20000 µM
IC50 (SNB-75): > 20000 µM
IC50 (J-RT3-T3-5): > 20000 µM
IC50 (NB5): > 20000 µM
IC50 (KE-37): 7490 µM
IC50 (A101D): > 20000 µM
IC50 (JVM-3): > 20000 µM
IC50 (KGN): > 20000 µM
IC50 (RKO): > 20000 µM
IC50 (KARPAS-45): 3050 µM
IC50 (C2BBe1): 11800 µM
IC50 (D-392MG): > 20000 µM
IC50 (HT-144): > 20000 µM
IC50 (COLO-320-HSR): > 20000 µM
IC50 (LS-1034): > 20000 µM
IC50 (KINGS-1): > 20000 µM
IC50 (EW-24): 9450 µM
IC50 (NCI-H1355): > 20000 µM
IC50 (SNU1): 8470 µM
IC50 (Ramos-2G6-4C10): > 20000 µM
IC50 (COLO-829): > 20000 µM
IC50 (DOHH-2): 7640 µM
IC50 (MN-60): > 20000 µM
IC50 (GR-ST): > 20000 µM
IC50 (EC-GI-10): > 20000 µM
IC50 (EW-18): 5850 µM
IC50 (CCRF-CEM): 2720 µM
IC50 (HCC2218): 701 µM
IC50 (RXF 393): > 20000 µM
IC50 (SF-268): > 20000 µM

CS(=O)(=O)c1ccc(C(=O)Nc2ccc(Cl)c(-c3ccccn3)c2)c(Cl)c1 [VISMODEGIB]
IC50 (NCI-H1648): > 10 µM
IC50 (RH-1): > 10 µM
IC50 (NCI-H1581): > 10 µM
IC50 (HCC1187): > 10 µM
IC50 (ES4): > 10 µM
IC50 (NOMO-1): > 10 µM
IC50 (LB373-MEL-D): > 10 µM
IC50 (DB): > 10 µM
IC50 (BB30-HNC): > 10 µM
IC50 (EKVX): > 10 µM
IC50 (MOLT-16): > 10 µM
IC50 (SNB-75): > 10 µM
IC50 (J-RT3-T3-5): > 10 µM
IC50 (NB5): > 10 µM
IC50 (KE-37): > 10 µM
IC50 (A101D): > 10 µM
IC50 (JVM-3): > 10 µM
IC50 (MFH-ino): > 10 µM
IC50 (KGN): > 10 µM
IC50 (MMAC-SF): > 10 µM
IC50 (RKO): > 10 µM
IC50 (KARPAS-45): > 10 µM
IC50 (SW684): > 10 µM
IC50 (C2BBe1): > 10 µM
IC50 (D-392MG): > 10 µM
IC50 (HT-144): > 10 µM
IC50 (A704): > 10 µM
IC50 (COLO-320-HSR): > 10 µM
IC50 (LS-1034): > 10 µM
IC50 (KINGS-1): > 10 µM
IC50 (EW-24): > 10 µM
IC50 (NCI-H1355): > 10 µM
IC50 (IST-SL1): > 10 µM
IC50 (DEL): > 10 µM
IC50 (SNU1): > 10 µM
IC50 (KALS-1): > 10 µM
IC50 (Ramos-2G6-4C10): > 10 µM
IC50 (COLO-829): > 10 µM
IC50 (DOHH-2): > 10 µM
IC50 (MN-60): > 10 µM
IC50 (GR-ST): > 10 µM
IC50 (EC-GI-10): > 10 µM
IC50 (EW-18): > 10 µM
IC50 (CCRF-CEM): > 10 µM
IC50 (RXF 393): > 10 µM
IC50 (no-10): > 10 µM
IC50 (SF-268): > 10 µM

CO[C@H]1C[C@@H]2CC[C@@H](C)[C@@](O)(O2)C(=O)C(=O)N2CCCC[C@H]2C(=O)O[C@H]([C@H](C)C[C@@H]2CC[C@@H](OC(=O)C(C)(CO)CO)[C@H](OC)C2)CC(=O)[C@H](C)/C=C(\C)[C@@H](O)[C@@H](OC)C(=O)[C@H](C)C[C@H](C)/C=C/C=C/C=C/1C [TEMSIROLIMUS]
IC50 (NCI-H1648): 0.182 µM
IC50 (RH-1): > 0.2 µM
IC50 (NCI-H1581): > 0.2 µM
IC50 (HCC1187): > 0.2 µM
IC50 (ES4): 0.0378 µM
IC50 (NOMO-1): 0.168 µM
IC50 (LB373-MEL-D): > 0.2 µM
IC50 (DB): 0.00312 µM
IC50 (BB30-HNC): > 0.2 µM
IC50 (EKVX): > 0.2 µM
IC50 (MOLT-16): 0.0128 µM
IC50 (SNB-75): > 0.2 µM
IC50 (J-RT3-T3-5): 0.0124 µM
IC50 (NB5): 0.111 µM
IC50 (KE-37): 0.0165 µM
IC50 (A101D): 0.0487 µM
IC50 (JVM-3): 0.00395 µM
IC50 (MFH-ino): > 0.2 µM
IC50 (KGN): > 0.2 µM
IC50 (MMAC-SF): > 0.2 µM
IC50 (RKO): 0.135 µM
IC50 (KARPAS-45): 0.0513 µM
IC50 (SW684): > 0.2 µM
IC50 (C2BBe1): > 0.2 µM
IC50 (D-392MG): > 0.2 µM
IC50 (HT-144): > 0.2 µM
IC50 (A704): > 0.2 µM
IC50 (COLO-320-HSR): > 0.2 µM
IC50 (LS-1034): > 0.2 µM
IC50 (KINGS-1): > 0.2 µM
IC50 (EW-24): > 0.2 µM
IC50 (NCI-H1355): 0.0559 µM
IC50 (IST-SL1): > 0.2 µM
IC50 (DEL): 0.00546 µM
IC50 (SNU1): 0.00481 µM
IC50 (KALS-1): 0.149 µM
IC50 (Ramos-2G6-4C10): 0.000342 µM
IC50 (COLO-829): > 0.2 µM
IC50 (DOHH-2): 0.0168 µM
IC50 (MN-60): 0.0193 µM
IC50 (GR-ST): 0.0333 µM
IC50 (EC-GI-10): > 0.2 µM
IC50 (EW-18): > 0.2 µM
IC50 (CCRF-CEM): > 0.2 µM
IC50 (HCC2218): > 0.2 µM
IC50 (RXF 393): 0.0157 µM
IC50 (no-10): > 0.2 µM
IC50 (SF-268): > 0.2 µM

Nc1cccc2c1CN(C1CCC(=O)NC1=O)C2=O (centres undefined) [LENALIDOMIDE]
IC50 (NCI-H1648): > 5 µM
IC50 (RH-1): > 5 µM
IC50 (NCI-H1581): > 5 µM
IC50 (HCC1187): > 5 µM
IC50 (ES4): > 5 µM
IC50 (NOMO-1): > 5 µM
IC50 (LB373-MEL-D): > 5 µM
IC50 (DB): > 5 µM
IC50 (BB30-HNC): > 5 µM
IC50 (EKVX): > 5 µM
IC50 (MOLT-16): > 5 µM
IC50 (SNB-75): > 5 µM
IC50 (J-RT3-T3-5): > 5 µM
IC50 (NB5): > 5 µM
IC50 (KE-37): > 5 µM
IC50 (A101D): > 5 µM
IC50 (JVM-3): > 5 µM
IC50 (MFH-ino): > 5 µM
IC50 (KGN): > 5 µM
IC50 (MMAC-SF): > 5 µM
IC50 (RKO): > 5 µM
IC50 (KARPAS-45): > 5 µM
IC50 (SW684): > 5 µM
IC50 (C2BBe1): > 5 µM
IC50 (D-392MG): > 5 µM
IC50 (HT-144): > 5 µM
IC50 (A704): > 5 µM
IC50 (COLO-320-HSR): > 5 µM
IC50 (LS-1034): > 5 µM
IC50 (KINGS-1): > 5 µM
IC50 (EW-24): > 5 µM
IC50 (NCI-H1355): > 5 µM
IC50 (IST-SL1): > 5 µM
IC50 (DEL): > 5 µM
IC50 (SNU1): > 5 µM
IC50 (KALS-1): > 5 µM
IC50 (Ramos-2G6-4C10): > 5 µM
IC50 (COLO-829): > 5 µM
IC50 (DOHH-2): > 5 µM
IC50 (MN-60): > 5 µM
IC50 (GR-ST): > 5 µM
IC50 (EC-GI-10): > 5 µM
IC50 (EW-18): > 5 µM
IC50 (CCRF-CEM): > 5 µM
IC50 (HCC2218): > 5 µM
IC50 (RXF 393): > 5 µM
IC50 (no-10): > 5 µM
IC50 (SF-268): > 5 µM
